Experimental data published in the NIST ThermoML archive (doi:10.1016/j.jct.2007.05.004).

Assay: xn = mol fraction of the nth substance listed
Conditions: 101 kPa, Liquid

O [water] + CO
x1 = 1
Conditions	viscosity [mPa·s]
293.15 K	1.003
298.15 K	0.89
303.15 K	0.797

COC(C)=O [methyl ethanoate] + CO
Conditions	mass density, 293.15 K [kg/m3]	mass density, 298.15 K [kg/m3]	mass density, 303.15 K [kg/m3]	viscosity, 293.15 K [mPa·s]	viscosity, 298.15 K [mPa·s]	viscosity, 303.15 K [mPa·s]
x2 = 0	933.56	926.98	920.34	0.386	0.367	0.348
x2 = 0.0471	930.26	923.71	917.1	0.378	0.359	0.341
x2 = 0.0982	926.48	919.95	913.37	0.378	0.361	0.342
x2 = 0.1983	918.39	911.96	905.46	0.379	0.366	0.348
x2 = 0.2912	909.97	903.65	897.26	0.382	0.364	0.347
x2 = 0.4015	898.52	892.35	886.12	0.394	0.37	0.351
x2 = 0.5006	886.79	880.78	874.71	0.404	0.382	0.36
x2 = 0.5878	875.07	869.25	863.35	0.416	0.392	0.371
x2 = 0.7017	857.33	851.73	846.09	0.442	0.416	0.393
x2 = 0.8015	838.91	833.57	828.19	0.472	0.443	0.417
x2 = 0.9008	817.51	812.45	807.37	0.521	0.486	0.455
x2 = 0.9504	805.16	800.29	795.38	0.551	0.516	0.483

CO [methanol] + COC(C)=O
x1 = 1
Conditions	mass density [kg/m3]	viscosity [mPa·s]
293.15 K	791.9	0.585
298.15 K	787.2	0.545
303.15 K	782.48	0.508

CCOC(C)=O [ethyl acetate] + CCO
Conditions	mass density, 293.15 K [kg/m3]	mass density, 298.15 K [kg/m3]	mass density, 303.15 K [kg/m3]	viscosity, 293.15 K [mPa·s]	viscosity, 298.15 K [mPa·s]	viscosity, 303.15 K [mPa·s]
x2 = 0	900.52	894.43	888.3	0.452	0.426	0.403
x2 = 0.0491	896.91	890.86	884.76	0.45	0.425	0.402
x2 = 0.099	893.14	887.11	881.03	0.452	0.429	0.406
x2 = 0.1958	885.48	879.55	873.57	0.463	0.435	0.412
x2 = 0.2961	877.07	871.22	865.34	0.476	0.448	0.426
x2 = 0.3947	868.09	862.38	856.63	0.497	0.467	0.439
x2 = 0.4948	858.16	852.62	847.03	0.542	0.502	0.467
x2 = 0.5995	846.81	841.47	836.07	0.581	0.543	0.508
x2 = 0.7004	834.71	829.57	824.39	0.66	0.614	0.575
x2 = 0.8004	821.45	816.55	811.61	0.758	0.701	0.65
x2 = 0.9003	806.45	801.82	797.15	0.919	0.843	0.777
x2 = 0.9505	798.36	793.91	789.42	1.048	0.958	0.869

CO [methanol] + CCOC(C)=O
x1 = 1
Conditions	mass density [kg/m3]	viscosity [mPa·s]
293.15 K	791.9	0.585
298.15 K	787.2	0.545
303.15 K	782.48	0.508

COC(C)=O [methyl ethanoate] + CCO
Conditions	mass density, 293.15 K [kg/m3]	mass density, 298.15 K [kg/m3]	mass density, 303.15 K [kg/m3]	viscosity, 293.15 K [mPa·s]	viscosity, 298.15 K [mPa·s]	viscosity, 303.15 K [mPa·s]
x2 = 0	933.56	926.98	920.34	0.386	0.367	0.348
x2 = 0.0493	927.83	921.31	914.73	0.383	0.363	0.345
x2 = 0.0987	922	915.54	909.02	0.389	0.365	0.347
x2 = 0.1998	909.85	903.54	897.15	0.398	0.377	0.359
x2 = 0.3006	897.16	891	884.79	0.419	0.395	0.374
x2 = 0.3973	884.52	878.56	872.54	0.444	0.418	0.394
x2 = 0.4863	872.35	866.59	860.77	0.477	0.449	0.422
x2 = 0.6031	855.48	849.99	844.45	0.54	0.505	0.473
x2 = 0.6972	841.15	835.91	830.62	0.615	0.572	0.537
x2 = 0.7986	824.84	819.89	814.9	0.735	0.684	0.64
x2 = 0.9009	807.47	802.85	798.18	0.903	0.838	0.768
x2 = 0.951	798.76	794.3	789.81	1.032	0.945	0.868

CCO [ethanol] + CCOC(C)=O
x1 = 1
Conditions	mass density [kg/m3]	viscosity [mPa·s]
293.15 K	789.75	1.187
298.15 K	785.46	1.082
303.15 K	781.15	0.987

CO [methanol] + O
Conditions	mass density, 293.15 K [kg/m3]	mass density, 298.15 K [kg/m3]	mass density, 303.15 K [kg/m3]	viscosity, 293.15 K [mPa·s]	viscosity, 298.15 K [mPa·s]	viscosity, 303.15 K [mPa·s]
x2 = 0	791.9	787.2	782.48	0.585	0.545	0.508
x2 = 0.049	800.06	795.47	790.84	0.655	0.607	0.563
x2 = 0.0993	808.62	804.11	799.56	0.735	0.677	0.627
x2 = 0.1973	826.11	821.73	817.31	0.9	0.821	0.751
x2 = 0.2983	845.03	840.79	836.5	1.086	0.987	0.889
x2 = 0.3985	864.67	860.59	856.45	1.287	1.15	1.032
x2 = 0.5003	885.57	881.69	877.32	1.481	1.309	1.164
x2 = 0.5994	906.58	902.96	899.26	1.673	1.463	1.289
x2 = 0.6997	928.45	925.21	921.89	1.793	1.554	1.342
x2 = 0.7986	949.8	947.17	944.42	1.789	1.542	1.342
x2 = 0.8999	971.59	969.84	967.9	1.522	1.317	1.147
x2 = 0.9512	983.86	982.53	980.97	1.274	1.121	0.996

CCO [ethanol] + COC(C)=O
x1 = 1
Conditions	mass density [kg/m3]	viscosity [mPa·s]
293.15 K	789.75	1.187
298.15 K	785.46	1.082
303.15 K	781.15	0.987
